Data: a melting point compilation (Tetko et al.; mined from patent text by program, amines drawn as free bases though some values may be those of a salt)

Work on `CN(C)c1c(F)c(F)c(F)c2c1c(=O)c(C(=O)O)cn2C1CC1` yielded a melting point of 160 to 163 °C. For `COc1ccccc1Cn1c(=O)[nH]c2cc(Cl)cc(Cl)c2c1=O`, the melting point was 143 to 146 °C. `CCCCP(=CC#N)(CCCC)CCCC` gave a melting point of 131 to 132 °C. Work on `CNC(=O)n1c(=O)n(CCCN2CCN(C(c3ccccc3)c3ccccc3)CC2)c2ccccc21` yielded a melting point of 153 °C. With `CC(=O)c1cccc(Oc2ncccc2NC(=O)Cc2ccc(C(C)(C)O)cc2)c1` the melting point was 85 to 87 °C. Work on `Cc1nnc2n1-c1sc(CCc3ccc(Cl)cc3)cc1C(c1ccccc1Cl)=NC2` yielded a melting point of 162 to 164 °C. Compound `CCOC(=O)C(Cl)=Cc1cc(-n2ncc(C(F)(F)F)c(C)c2=O)ccc1Cl` has a melting point of 164 to 167 °C. In the case of `CC(C(=O)O)c1ccc2cc(OCc3nc4ccccc4s3)ccc2c1` (configuration not stated), the melting point is reported as 169 to 171 °C. With `Cc1ccc(S(=O)(=O)NCCc2cccc(OCCN)c2)cc1` the melting point was 128 to 130 °C. With `O=C(NCCc1ccccc1F)[C@@H]1Cc2ccccc2N1` the melting point was 135 °C. With `CC(C)(C)OC(=O)NC1Cc2ccccc2C1Oc1ccccc1Cc1ccccc1` (configuration not stated) the melting point was 113 to 114 °C. In the case of `N=C(N)Nc1nc(CSCCC(=O)NS(N)(=O)=O)cs1`, the melting point is reported as 160 °C. Work on `CCOC(=O)c1cnn(-c2ccc(F)cc2)c1` yielded a melting point of 119 to 121 °C. Compound `O=Cc1ccc(C(=O)Nc2ccc(C(F)(F)F)cc2)cc1` has a melting point of 173 °C. With `CNC(=O)C(CCN(C)C)(c1ccccc1)C(O)c1ccccc1` (configuration not stated) the melting point was 107 to 115 °C. For `COc1ccc(C=CC(O)C(O)C=Cc2ccc(OC)cc2)cc1` (configuration not stated), the melting point was 145 to 146 °C. Compound `O=C(O)CC(O)c1ccc(-c2ccccc2Cl)o1` (configuration not stated) has a melting point of 53 to 55 °C. With `CC(=O)SCCNC(=O)CCNC(=O)OCc1ccccc1` the melting point was 83 to 108 °C. Work on `CCOC(=O)c1c(-c2ccc(F)cc2)c2ccsc2c(=O)n1C` yielded a melting point of 145 to 147 °C. Compound `CC(C)=COc1ccc2c(C)cc(=O)oc2c1C(=O)C=Cc1cccnc1` has a melting point of 156 to 157 °C. With `CC(C)(C)OC(=O)NCc1cccc(Nc2ncnc3[nH]cc(C(=O)c4ccccc4)c23)c1` the melting point was 210 to 212 °C. `O=S(=O)(/C=C/c1ccc(Cl)cc1)Nc1cccc(Cl)c1` gave a melting point of 118 to 120 °C. For `O=C(O)CC1c2ccccc2CCN1S(=O)(=O)c1ccc2ccccc2c1` (configuration not stated), the melting point was 132 °C. Compound `COc1ccc2nc(-c3c[nH]c4ccccc34)[nH]c(=O)c2c1` has a melting point of 311 to 312 °C. Compound `COc1ccc2c(c1)C=CC(C#N)N2C(=O)c1ccccc1` (configuration not stated) has a melting point of 124 °C. With `Cc1ccc2c(n1)CCCC2(O)c1ccccc1` (configuration not stated) the melting point was 130 to 134 °C. For `Cc1cc(C(=O)N2CCN(c3c(C#N)c(=O)n(Cc4ccc(F)cc4)c4ccccc34)CC2)no1`, the melting point was 123 to 135 °C. With `COCCn1nc(C)c(-c2ccc3c(c2)NC(=O)CO3)c1-c1ccc(F)cc1` the melting point was 174 °C. For `Cc1nn(C)c(C#N)c1NC=O`, the melting point was 135 °C. `C=CC(CC(O)C(CC1CCCCC1)NC(=O)C(Cc1c[nH]cn1)NC(=O)C(CN)(Cc1ccccc1)Cc1ccccc1)C(C)C` (configuration not stated) showed a melting point of 89 °C. `O=C(NN=c1[nH]nc(Cl)c2ccccc12)c1ccccc1` showed a melting point of 162 °C. Compound `Cc1ccc(C(Cn2cncn2)=NOCc2c(Cl)cccc2Cl)c(Cl)c1` has a melting point of 97 to 99 °C. Work on `O=C(NC1CCCCC1)c1c(O)c2ccccc2[nH]c1=O` yielded a melting point of 221 °C. `O=C(O)c1cc(OCc2ccccc2)c(OCc2ccccc2)cn1` gave a melting point of 204 °C. Work on `Oc1c(Br)c(Br)c(F)c(Br)c1Br` yielded a melting point of 178 to 180 °C. In the case of `CC(C(=O)O)c1ccc2c(c1)CC(=O)c1ccccc1S2` (configuration not stated), the melting point is reported as 130 to 132 °C. For `O=C1OCCC1N1CCCC1=O` (configuration not stated), the melting point was 80 to 81 °C. Compound `CCNC(=O)n1nc(Oc2ncc(C(F)(F)F)cc2Cl)c(Cl)c1C` has a melting point of 111 to 112 °C. In the case of `Nc1cc(C(F)(F)F)ccc1S(=O)(=O)c1ccccc1`, the melting point is reported as 142 to 143 °C. Compound `Cc1c(N2CCN(C(C)C)CC2)nn2c(-c3ccnnc3)c(-c3ccc(F)cc3)nc2c1C` has a melting point of 222 to 224 °C. Compound `CCc1ccc2c(c1)CC(=O)N2c1c(C)cccc1Cl` has a melting point of 125 to 126 °C. `CCOC(=O)c1c(Cn2cncn2)nc2sc3c(c2c1-c1ccc(OC)c(OC)c1)CCNC3` gave a melting point of 164 to 165 °C. Work on `CC(C)(C)OC(=O)N[C@@H](Cc1ccccc1)C(=O)CCC(=O)N[C@@H](Cc1c[nH]c2ccccc12)C(=O)O` yielded a melting point of 141 to 143 °C. In the case of `CON(c1ccc([N+](=O)[O-])cc1Cl)S(=O)(=O)c1cccc([N+](=O)[O-])c1`, the melting point is reported as 168 to 169 °C. `Cc1[nH]c2ccc(OCCCCBr)cc2c1C` gave a melting point of 119 to 120 °C. With `COc1ccc2c(c1)c(C(=O)C(=O)NC1=CC(=O)OC1)cn2Cc1ccc(Cl)cc1` the melting point was 238 to 240 °C. Work on `COC(Cn1cncn1)(c1ccc(F)cc1F)C(F)(F)S(=O)(=O)CCO` (configuration not stated) yielded a melting point of 108 to 110 °C. With `CCOc1ccc(C(=O)c2ccccc2F)c(Cl)c1Cl` the melting point was 94 to 95 °C. Compound `Clc1ccc(Cl)n2nc(SCc3ccccc3)nc12` has a melting point of 103 to 104 °C. In the case of `CC(=O)Nc1nc(N)nc(C2CCC(c3ccccc3)CC2)n1` (configuration not stated), the melting point is reported as > 260 °C. In the case of `CCOC1=NS(=O)(=O)c2cc(I)ccc21`, the melting point is reported as 185 to 190 °C. `CC1(C)CC(=O)Nc2ccc(N)cc21` gave a melting point of 126 to 130 °C. `CC(C)(C)[S@@](=O)NC1(c2ccc3c(C(F)(F)F)c(O[C@H]4CC[C@H](C(C)(C)C)CC4)ccc3c2)COC1` showed a melting point of 86.8 to 90 °C. `CCCCCCCCCCCCc1cc(NC(=O)Nc2c(C(C)C)cccc2C(C)C)no1` showed a melting point of 101 to 107 °C. `COc1ccc2c(c1)C(C#N)c1ccccc1CO2` (configuration not stated) showed a melting point of 120 to 122 °C. For `CC1c2ccccc2CCN1C(=O)c1cc2ncc(Br)cn2n1` (configuration not stated), the melting point was 121 to 123 °C. With `Cc1cc(Br)cc(C(=O)c2[nH]c(=O)[nH]c(=O)c2C(C)C)c1` the melting point was 266 to 267 °C. `NC(=O)c1c(Cl)ccc([N+](=O)[O-])c1Cl` showed a melting point of 163 to 165 °C. With `Oc1ccc(-c2nc3cc(O)cc(C(Br)CBr)c3o2)cc1` (configuration not stated) the melting point was 175 to 177 °C. `O=C1c2c(Cl)cccc2-n2cnc(-c3nc(CN(CC4CC4)CC4CC4)no3)c2[C@@H]2CCN12` showed a melting point of 155 to 160 °C. `CC1(C)CCC(=O)c2c1oc(-c1ccncc1)c2-c1ccccc1` gave a melting point of 156 to 157 °C. `Cc1cccc2c1N(CC(=O)N1CC3CCC(CC3)C1)C(=O)C(NC(=O)c1cc3ccccc3[nH]1)N=C2C1CCCCC1` (racemic) gave a melting point of 206 to 212 °C. `O=C1NCCCN1C1(CO)CCN(Cc2ccccc2)CC1` showed a melting point of 210 °C. Work on `COc1cc(C(O)c2cnc(Cl)nc2Cl)cc(OC)c1OC` (configuration not stated) yielded a melting point of 115 to 118 °C. Compound `CC(=O)c1cccc(-c2cc3c4cc(C)ccc4[nH]c3n(C)c2=O)c1` has a melting point of 258 to 260 °C. In the case of `COC(=O)C1Oc2cc(Cl)ccc2C(C)(c2ccccc2)O1` (configuration not stated), the melting point is reported as 144 °C. In the case of `CN1CCN(c2ccccc2C=C2C(=O)Nc3ccc(Cl)cc32)CC1`, the melting point is reported as 235 to 237 °C. In the case of `O=C1CCCc2[nH]c(=O)ccc21`, the melting point is reported as 302 to 303 °C. With `OC1CSC(Oc2cnccc2-c2ccc(F)cc2)C(O)C1O` (configuration not stated) the melting point was 219 °C. With `O=C(NCCN1CCOCC1)NCc1ccc2c(c1)Cc1c(-c3ccsc3)n[nH]c1-2` the melting point was 168 to 170 °C. With `COC(=O)Nc1cn2nc(OCc3cc(OC)c(OC)c(OC)c3Br)ccc2n1` the melting point was 218 to 219 °C. Compound `CN1CCN(c2ccc(C(=O)N[C@H]3CC[C@H](CCN4CCN(c5nccc6c5OCC6)CC4)CC3)cc2)CC1` has a melting point of 236 °C.
